Data published in a melting point compilation (Tetko et al.; mined from patent text by program, amines drawn as free bases though some values may be those of a salt).

SMILES	melting point [°C]
Cc1oc(-c2ccccc2)nc1COc1ccc(COc2ncccc2CC#N)cn1	110 to 111
CNC(=O)c1sc(C(C)(C)C)cc1NC(=O)Nc1ccc(F)cc1	203 to 204
C=CCOC(=O)CCc1cc(C(C)(C)C)c(O)c(C(C)(C)C)c1	40
c1cc2cc(-c3nnn[nH]3)ccc2[nH]1	205
Cc1c2n(c3ccc(Br)cc13)CCCC2O (stereo not drawn)	120 to 123
C=C1C(c2ccccc2)=C(c2ccc(S(C)(=O)=O)cc2)C1(Cl)Cl	124 to 126
Cc1ccc(-c2cn(-c3ccc4c(c3)c3ccccc3n4C)c(-c3ccc(C)s3)n2)s1	248 to 255
CSC(=S)N1C(CO)Cc2c([nH]c3ccccc23)C1CO (stereo not drawn)	179 to 180
CCN(CC)CCn1nc2c3c(c(CNS(C)(=O)=O)ccc31)Sc1ccccc1-2	120 to 125
CNC(=O)c1cc(-c2ccc(OC)cc2)nn(Cc2ccc([N+](=O)[O-])cc2)c1=O	199
CCCCc1nn(-c2cc(N)ccc2Br)c(=O)n1Cc1ccc(-c2ccccc2S(=O)(=O)NC(C)(C)C)cc1F	103 to 105
C=CCc1ccc(OCCC(C)C)c2c(=O)cc(-c3nnnn3Cc3ccccc3)oc12	92.5 to 94
COc1ccc(Nc2nc(NC3CCCCCC3)nc(Oc3ccc(C(C)=O)cc3Cl)n2)cc1Cl	186 to 196
CC(C)Oc1cc(-n2c(=O)cc(C(F)(F)C(F)(F)F)[nH]c2=O)c(F)cc1Cl	141 to 143
CC(C)(C)c1cc(C2=CCCCCC2)c(O)c(C(C)(C)C)c1	78 to 80
CC(C)=CCN1[C@H](C)Cn2c(=S)[nH]c3cccc(c32)[C@@H]1C (relative stereo)	138
O=C(NCCO)c1cccc(-c2ccc3c(c2)N(c2ccc(Cl)cc2Cl)CC3)c1	140 to 141
CNC(=O)[C@H](O)[C@@H](Sc1ccccc1N)c1ccc(OC)cc1	145 to 147
C#CCN1CCN(C2Cc3ccc(OC)cc3Sc3ccc(Cl)cc32)CC1 (stereo not drawn)	177 to 180
O=C(O)CCCCCCCCC=Cc1cccs1	61 to 62
Oc1cccc2c1SCCC2	86 to 88
COc1ncc(C=O)cc1Br	94 to 95
COc1ccc(N2CCN(Cc3cnc(Cc4ccc(OC)c(OC)c4)c4cc(OC)c(OC)cc34)CC2)cc1	176 to 177
C(=C\c1c[nH]c2ccccc12)/c1cc(/C=C/c2ccccc2OCc2ccccn2)[nH]n1	114 to 125
Cc1cc2c(cc1C(=O)c1ccc(C(O)=NOCc3ccccc3)cc1)C(C)(C)CCC2(C)C	169 to 172

SMILES	melting point [°C]
S=c1sscc1-c1ccccc1	122 to 124
COc1c(F)cc(-c2c(-c3ccc(S(C)(=O)=O)cc3)cnn(-c3ccc(F)c(Cl)c3)c2=O)cc1F	195 to 197
CN1CSC(=Cc2ccc(O)c(C(C)(C)C)c2)C1=O	> 230
O=C(NC(=O)c1c(F)cccc1F)Nc1cc(Cl)c(Oc2ccc(Cl)c3ccccc23)c(Cl)c1	237 to 239
CCCCCS(=O)(=O)NC(=O)CCc1cc(OCc2nnc(C)o2)nn1Cc1ccc(Cl)cc1Cl	156 to 158
Clc1ccccc1C(Cl)(c1ccccc1)c1ccccc1	131
COc1c(NC(=O)c2ccc(C)c(-n3cc(C(=O)NCC4CCN(C)CC4)nn3)c2)cc(C(C)(C)C)cc1NS(C)(=O)=O	202 to 203
O=C(O)c1cn(-c2nncs2)c2cc(F)c(F)cc2c1=O	233 to 236
CC(C)(C)c1ccc(OCC(N)CO)cc1 (stereo not drawn)	102
O=C(CC(Cc1cccc2ccccc12)C(=O)N[C@@H](Cc1c[nH]cn1)C(=O)N[C@H](CO)Cc1ccccc1)NCCc1ccccc1 (stereo partly drawn)	106 to 109
CCOc1ccc(CN2CCc3cc(O)ccc3C2)cc1OCC	150 to 154
CCN(N)c1cnn(-c2cccc(C(F)(F)F)c2)c(=O)c1	108 to 110
CSc1c(CC(=O)O)cc(C)c2c3ccccc3n(Cc3ccccc3)c12	219 to 220
COC(=O)c1cccc2[nH]c(-c3ccc(Cl)cc3)cc12	150 to 152
Nc1ncnc2ncn(Cc3ccccc3)c12	252 to 255
CN(C)Cc1ccc(CNCCN2CCNC2=C(C#N)C#N)o1	159 to 160
CC1(C(O)(Cc2ccccc2Cl)Cn2cncn2)CCCCC1 (stereo not drawn)	105
O=S(=O)(c1ccccc1)N1CCC(C(O)(c2ccc(F)cc2)c2ccc(F)c(F)c2)CC1 (stereo not drawn)	97 to 99
Fc1ccc(-c2[nH]nc(-c3ccccc3)c2-c2ccncc2)cc1	265 to 267
COc1cc(NC(=O)CCCCCBr)c2nccc(C)c2c1	111 to 113
CCCOc1ccccc1-c1nc2sccc2c(=O)[nH]1	115 to 117
COc1ccc(S(=O)(=O)Nc2ccccc2Nc2ncccn2)cc1	193 to 195
Cc1cc(CCCCCOc2ccc(-c3nnco3)cc2)on1	84 to 86
CCCn1c(=O)nc(Sc2ccc(Cl)cc2)sc1=S	151 to 152
COC(C)=CC(=O)Nc1cccc(N(C)C(N)=O)c1	166

SMILES	melting point [°C]
COc1cc(C(=O)O)cc(OC)c1OC(C)=O	181 to 183
COc1ccc(C(=O)NCCCCn2cnc3c(N)nc4ccccc4c32)c(OC)n1	175 to 177
CCOC(=O)c1[nH]cnc1C(F)(F)F	184 to 186
COc1c(C)c(C)c(NC(=O)OC(C)(C)C)c(C)c1Br	159 to 161
COc1ccc(-c2nn(CC(C)C)c(=O)cc2-c2ccc(OC)c(F)c2)cc1	125
CCOC(=O)c1c(N)n(CC)c2nc(Cl)ccc2c1=O	252
CCOC(=O)C(=O)Nc1cc(Cl)c(Cl)cc1[N+](=O)[O-]	96 to 97
CCC1(CC)OC(=O)c2cc(N)ccc21	153 to 154
COc1ccnc(CCc2nc3cc(-c4ccc(O)cc4)cnc3[nH]2)c1	206 to 208
COc1nc2cc(C(c3ccccc3)n3ccnc3)ccc2[nH]1 (stereo not drawn)	110
O=C(CCCl)N(c1ccccc1)C1CCCc2ccccc21 (stereo not drawn)	78 to 81
CC(C)(C)NCC(O)COc1ccc(C(=O)Nc2cccc3[nH]ccc23)cc1 (stereo not drawn)	212
COc1cc2c(cc1OCc1ccccc1)[nH]c1cc(-c3ccccc3Cl)c3c(c12)C(=O)NC3=O	260 to 264
Cc1nc(C)c(-c2ccnc(Nc3cccc(S(=O)(=O)NCCO)c3)n2)s1	184 to 186
Cc1nn(-c2c(Cl)cc(C(F)(F)F)cc2Cl)c(C)c1-c1nc(C#N)c(C#N)[nH]1	80 to 83
CC1=NN(C(=O)NS(=O)(=O)c2c(F)cccc2F)CC1	196
CCCOc1ccccc1-c1ncc(N)c(=O)[nH]1	157 to 158
COc1ccc(CCBr)cc1OC	72 to 73
C[Si](C)(C)c1ccc(NC(=O)NC(=O)c2c(F)cccc2F)cc1	187 to 189
CCc1ccc(-c2ccc(I)cc2)cc1	145 to 149
CC(C)(Oc1ccc(Cl)cc1)c1ccnc2ncnn12	132 to 135
CCCCNC(=O)OC1c2ccccc2C(=O)N1c1ccc2ccc(Cl)nc2n1 (stereo not drawn)	152
O=C1c2ccccc2S(=O)(=O)N1CCCCOc1ccccc1	92 to 94
